Reference: ChEMBL document CHEMBL1201862, “PubChem BioAssay data set” (2004)
Each block holds one compound with its values, some of them ahead of it. Calls of active or inactive are those of the source.

How the values were obtained:
[1] = biological target: Sphingosine 1-phosphate receptor 2 (Homo sapiens, UniProt O95136); assay: Late-stage fluorescence-based dose-response cell-based counterscreen assay to identify agonists of the Sphingosine 1-Phosphate Receptor 3 (S1P3): Sphingosine 1-Phosphate Receptor 2 (S1P2) agonist assay.; format: functional
[2] = biological target: Sphingosine 1-phosphate receptor 4 (Homo sapiens, UniProt O95977); assay: Late-stage fluorescence-based dose-response cell-based counterscreen assay to identify agonists of the Sphingosine 1-Phosphate Receptor 3 (S1P3): Sphingosine 1-Phosphate Receptor 4 (S1P4) agonist assay.; format: functional
[3] = biological target: Melanocortin receptor 4 (Homo sapiens, UniProt P32245); assay: MC4R antagonist potency on cAMP, dose response, cell-based, TR-FRET, biased antagonists (AID 602298); format: functional;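 note: antagonist potency against agonist-stimulated cAMP production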
[4] = nonselective inhibitors of cellular cAMP signaling, dose response, counter-screen for MC4R biased antagonist project, cell-based, TR-FRET cAMP detection (AID 602305); format: functional;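 note: U2OS cells stimulated with forskolin near its EC80 as the cAMP inducer; potency is for inhibition of forskolin-stimulated cAMP signaling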
[5] = biological target: T1, Fatty acid synthase (Homo sapiens, UniProt P49327); assay: FAS thioesterase domain inhibitors, dose response, biochemical, endpoint fluorescence intensity, uHTS hits (AID 624327); format: functional;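 note: fluorescence from hydrolysis of an O-methyl fluorescein acyl ester substrate by the enzyme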
[6] = biological target: T1, Fatty acid synthase; assay: FAS thioesterase domain inhibitors, dose response, biochemical, kinetic fluorescence intensity (AID 624326); format: functional;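 note: rate of fluorescence rise from hydrolysis of a fluorogenic O-methyl fluorescein ester substrate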
[7] = biological target: T2, Sentrin-specific protease 7 (Homo sapiens, UniProt Q9BQF6); assay: SENP7 protease inhibitors, SAR follow-up, biochemical, luminescence (AID 504497); format: functional
T2 sequence (Q9BQF6 whole entry): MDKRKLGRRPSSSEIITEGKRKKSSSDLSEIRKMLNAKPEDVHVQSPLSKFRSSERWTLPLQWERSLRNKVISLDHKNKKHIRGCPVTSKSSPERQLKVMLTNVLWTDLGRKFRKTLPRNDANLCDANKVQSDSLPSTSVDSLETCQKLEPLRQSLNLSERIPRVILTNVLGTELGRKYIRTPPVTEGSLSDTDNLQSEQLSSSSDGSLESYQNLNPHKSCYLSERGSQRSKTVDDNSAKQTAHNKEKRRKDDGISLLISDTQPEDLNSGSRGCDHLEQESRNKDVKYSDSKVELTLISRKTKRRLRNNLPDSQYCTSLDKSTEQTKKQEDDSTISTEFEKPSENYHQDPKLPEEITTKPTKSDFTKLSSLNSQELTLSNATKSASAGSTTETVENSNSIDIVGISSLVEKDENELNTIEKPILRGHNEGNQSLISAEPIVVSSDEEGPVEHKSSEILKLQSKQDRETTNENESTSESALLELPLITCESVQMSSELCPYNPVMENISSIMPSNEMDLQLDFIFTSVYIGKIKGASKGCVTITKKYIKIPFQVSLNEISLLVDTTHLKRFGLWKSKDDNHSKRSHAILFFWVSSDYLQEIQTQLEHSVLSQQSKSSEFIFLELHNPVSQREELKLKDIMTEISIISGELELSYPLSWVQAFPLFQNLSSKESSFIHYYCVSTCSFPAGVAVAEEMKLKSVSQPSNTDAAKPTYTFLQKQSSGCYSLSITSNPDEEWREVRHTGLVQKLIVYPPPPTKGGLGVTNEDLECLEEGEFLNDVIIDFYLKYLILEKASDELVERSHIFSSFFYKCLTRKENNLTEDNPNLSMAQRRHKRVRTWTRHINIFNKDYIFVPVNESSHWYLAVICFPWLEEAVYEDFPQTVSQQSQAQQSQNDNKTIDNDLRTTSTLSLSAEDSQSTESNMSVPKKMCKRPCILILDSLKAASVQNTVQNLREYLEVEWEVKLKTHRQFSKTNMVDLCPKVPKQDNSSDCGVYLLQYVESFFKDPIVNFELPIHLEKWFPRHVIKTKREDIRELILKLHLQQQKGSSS

[8] = biological target: T3, Caspase-3 (Homo sapiens, UniProt P42574); assay: SAR Analysis of small molecule inhibitors of Sentrin-specific proteases (SENPs) using a Caspase-3 Selectivity assay. [Related pubchem assays (depositor defined):AID2540, AID2599, AID434973, AID489001]; format: functional
T3 sequence (P42574 whole entry): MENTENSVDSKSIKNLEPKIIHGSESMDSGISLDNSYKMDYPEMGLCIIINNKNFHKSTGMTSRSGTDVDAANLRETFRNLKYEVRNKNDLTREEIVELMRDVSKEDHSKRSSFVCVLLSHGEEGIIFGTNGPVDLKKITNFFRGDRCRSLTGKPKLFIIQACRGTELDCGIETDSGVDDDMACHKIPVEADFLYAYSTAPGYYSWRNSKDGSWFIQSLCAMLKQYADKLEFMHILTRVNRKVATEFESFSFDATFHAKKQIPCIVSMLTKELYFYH

[9] = biological target: T3, Caspase-3; assay: caspase-3 inhibitors as off-family protease, SAR follow-up, selectivity assay for SENP protease inhibitor project, biochemical, luminescence, set 2 (AID 588599); format: functional
[10] = biological target: T4, Sentrin-specific protease 6 (Homo sapiens, UniProt Q9GZR1); assay: SAR Analysis of small molecule inhibitors of Sentrin-specific protease 6 (SENP6) using a Luminescent assay. [Related pubchem assays (depositor defined):AID2582, AID2599]; format: functional
T4 sequence (Q9GZR1 whole entry): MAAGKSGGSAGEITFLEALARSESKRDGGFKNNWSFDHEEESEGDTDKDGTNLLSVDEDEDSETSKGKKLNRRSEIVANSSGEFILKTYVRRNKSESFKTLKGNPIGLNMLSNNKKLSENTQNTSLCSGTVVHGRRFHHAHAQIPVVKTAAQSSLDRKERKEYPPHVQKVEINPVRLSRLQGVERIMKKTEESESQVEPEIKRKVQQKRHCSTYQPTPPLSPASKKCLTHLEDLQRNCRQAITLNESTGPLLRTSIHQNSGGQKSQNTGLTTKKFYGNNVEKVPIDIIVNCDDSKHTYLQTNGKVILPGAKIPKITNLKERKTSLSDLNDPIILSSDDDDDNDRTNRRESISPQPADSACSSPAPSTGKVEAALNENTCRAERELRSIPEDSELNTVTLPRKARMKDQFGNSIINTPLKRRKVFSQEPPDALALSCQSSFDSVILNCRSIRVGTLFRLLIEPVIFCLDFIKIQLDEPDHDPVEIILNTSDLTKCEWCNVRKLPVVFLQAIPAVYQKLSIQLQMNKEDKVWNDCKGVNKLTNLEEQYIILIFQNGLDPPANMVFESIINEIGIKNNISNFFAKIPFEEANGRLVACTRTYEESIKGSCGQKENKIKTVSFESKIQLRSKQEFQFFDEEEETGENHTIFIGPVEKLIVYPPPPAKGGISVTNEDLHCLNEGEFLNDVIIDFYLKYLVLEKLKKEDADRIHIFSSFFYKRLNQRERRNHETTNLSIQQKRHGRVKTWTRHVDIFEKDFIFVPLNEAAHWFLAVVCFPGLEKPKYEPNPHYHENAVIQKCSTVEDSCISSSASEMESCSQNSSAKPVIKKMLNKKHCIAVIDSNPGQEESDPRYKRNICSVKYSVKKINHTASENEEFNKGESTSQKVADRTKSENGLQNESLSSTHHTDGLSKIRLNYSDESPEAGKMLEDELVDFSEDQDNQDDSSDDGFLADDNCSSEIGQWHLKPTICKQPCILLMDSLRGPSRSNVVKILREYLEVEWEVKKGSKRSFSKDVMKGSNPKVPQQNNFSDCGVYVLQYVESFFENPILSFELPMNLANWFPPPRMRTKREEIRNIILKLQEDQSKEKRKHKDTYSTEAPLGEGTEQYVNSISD

[11] = biological target: T5, Sentrin-specific protease 8 (Homo sapiens, UniProt Q96LD8); assay: SENP8 protease inhibitors, SAR follow-up, biochemical, luminescence (AID 504501); format: functional
T5 sequence (Q96LD8 whole entry): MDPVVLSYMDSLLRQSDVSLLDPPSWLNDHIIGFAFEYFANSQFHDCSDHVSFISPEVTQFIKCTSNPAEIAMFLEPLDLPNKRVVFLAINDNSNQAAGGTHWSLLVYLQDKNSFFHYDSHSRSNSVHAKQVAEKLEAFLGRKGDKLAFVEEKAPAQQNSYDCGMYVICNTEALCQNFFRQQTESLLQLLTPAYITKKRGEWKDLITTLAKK

[12] = biological target: T4, Sentrin-specific protease 6; assay: SENP6 protease inhibitors, SAR follow-up, biochemical, luminescence, set 2 (AID 588598); format: functional
[13] = biological target: T5, Sentrin-specific protease 8; assay: SENP8 protease inhibitors, SAR follow-up, biochemical, luminescence, set 2 (AID 588601); format: functional
[14] = biological target: T2, Sentrin-specific protease 7; assay: SENP7 protease inhibitors, SAR follow-up, biochemical, luminescence, set 2 (AID 588600); format: functional
[15] = biological target: Melanin-concentrating hormone receptor 1 (Homo sapiens, UniProt Q99705); assay: Late-stage fluorescence-based counterscreen for antagonists of the G-protein coupled receptor 7 (GPR7): cell-based dose response assay to identify antagonists of the melanin-concentrating hormone receptor 1 (MCHR1) Set 5.; format: functional
[16] = biological target: Neuropeptides B/W receptor type 1 (Homo sapiens, UniProt P48145); assay: GPR7 antagonist potency, late-stage follow-up, cell-based, fluorescence, dose response, set 5 (AID 588566); format: functional
[17] = biological target: Mitogen-activated protein kinase kinase kinase kinase 5 (Homo sapiens, UniProt Q9Y4K4); format: functional;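 note: measured as one member of a kinome-spanning kinase panel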
[18] = biological target: Serine/threonine-protein kinase PAK 1 (Homo sapiens, UniProt Q13153); format: functional
[19] = biological target: Interleukin-1 receptor-associated kinase 4 (Homo sapiens, UniProt Q9NWZ3); format: functional
[20] = biological target: Dual specificity protein kinase CLK4 (Homo sapiens, UniProt Q9HAZ1); format: functional
[21] = biological target: Mitogen-activated protein kinase kinase kinase kinase 4 (Homo sapiens, UniProt O95819); format: functional
[22] = biological target: MAP kinase-interacting serine/threonine-protein kinase 2 (Homo sapiens, UniProt Q9HBH9); format: functional
[23] = tested on: HEK293; assay: HEK cell cytotoxicity by LDH release, dose response, cytotoxicity control for IDE activator project, fluorescence, HEK cells (AID 588440); format: functional, cell-based; conditions: Homo sapiens;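 note: cytotoxicity by LDH release measuring loss of membrane integrity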
[24] = tested on: HEK293; assay: optical interference in Abeta FP readout, dose response, artefact control for IDE activator project, biochemical, fluorescence polarization (AID 588442); format: functional, cell-based; conditions: Homo sapiens
[25] = biological target: T6, Insulin-degrading enzyme (Homo sapiens, UniProt P14735); assay: activators of endogenous IDE in HEK cells, dose response, cell-based, fluorescence polarization (AID 588439); format: functional
[26] = tested on: CHO; assay: cytotoxicity in TLR9-MyD88 CHO cells, dose response, cytotoxicity control for TLR9-MyD88 binding inhibitor project, cell-based, luminescence (AID 588339); format: functional, hamster; conditions: Cricetulus griseus;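 note: CHO cells stably coexpressing TLR9 and MyD88 fusions from primary screen; compound exposure lasted 48 hours before viability readout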
[27] = biological target: T6, Insulin-degrading enzyme; assay: activators of recombinant IDE enzyme, dose response, counter-screen for IDE activator project, biochemical, fluorescence polarization (AID 588681)
[28] = biological target: Beta Lactamase (Pseudomonas aeruginosa, UniProt Q932Y6); assay: beta-lactamase reporter inhibitor potency, dose response, artefact control for TLR9-MyD88 binding inhibitor project, BLA reporter cells, FRET fluorescence (AID 588341); format: cell-based;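 note: cell based assay in CHO-K1 cells stably expressing beta-lactamase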
[29] = Luminescence Cell-Based Dose Retest to Confirm Inhibitors of Cancer Stem Cells. [Related pubchem assays (depositor defined):AID2717, AID2721]; format: functional; conditions: Homo sapiens
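Throughout, for AC50: cells exposed to compound for roughly 70 hours or longer before luminescence read.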

T6 sequence (P14735 whole entry, the tested form may be a part): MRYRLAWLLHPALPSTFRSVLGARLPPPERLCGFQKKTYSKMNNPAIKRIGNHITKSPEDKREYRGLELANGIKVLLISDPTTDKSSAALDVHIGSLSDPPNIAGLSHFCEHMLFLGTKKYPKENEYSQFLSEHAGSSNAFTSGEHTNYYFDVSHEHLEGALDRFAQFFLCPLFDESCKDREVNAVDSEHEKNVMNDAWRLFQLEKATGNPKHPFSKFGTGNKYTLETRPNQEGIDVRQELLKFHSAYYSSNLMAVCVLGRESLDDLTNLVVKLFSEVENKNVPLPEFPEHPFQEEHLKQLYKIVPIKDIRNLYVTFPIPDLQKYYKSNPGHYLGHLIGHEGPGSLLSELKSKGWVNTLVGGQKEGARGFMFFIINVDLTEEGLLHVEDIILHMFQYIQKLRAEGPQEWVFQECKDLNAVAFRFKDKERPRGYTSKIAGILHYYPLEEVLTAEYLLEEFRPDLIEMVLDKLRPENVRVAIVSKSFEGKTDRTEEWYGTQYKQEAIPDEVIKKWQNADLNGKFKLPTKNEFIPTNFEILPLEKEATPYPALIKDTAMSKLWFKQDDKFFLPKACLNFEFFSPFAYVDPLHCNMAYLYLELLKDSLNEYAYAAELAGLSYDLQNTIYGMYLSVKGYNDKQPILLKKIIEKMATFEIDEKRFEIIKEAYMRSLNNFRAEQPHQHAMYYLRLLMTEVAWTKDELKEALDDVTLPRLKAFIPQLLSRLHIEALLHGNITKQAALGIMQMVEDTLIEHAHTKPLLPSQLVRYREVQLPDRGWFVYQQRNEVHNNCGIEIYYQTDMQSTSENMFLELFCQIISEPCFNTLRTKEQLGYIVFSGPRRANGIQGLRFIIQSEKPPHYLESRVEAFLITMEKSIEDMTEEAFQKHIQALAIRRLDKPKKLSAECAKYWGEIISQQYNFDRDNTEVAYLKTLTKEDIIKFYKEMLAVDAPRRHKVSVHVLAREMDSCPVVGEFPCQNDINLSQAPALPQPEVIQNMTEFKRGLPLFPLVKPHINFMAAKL
T1 sequence (P49327 whole entry, the tested form may be a part): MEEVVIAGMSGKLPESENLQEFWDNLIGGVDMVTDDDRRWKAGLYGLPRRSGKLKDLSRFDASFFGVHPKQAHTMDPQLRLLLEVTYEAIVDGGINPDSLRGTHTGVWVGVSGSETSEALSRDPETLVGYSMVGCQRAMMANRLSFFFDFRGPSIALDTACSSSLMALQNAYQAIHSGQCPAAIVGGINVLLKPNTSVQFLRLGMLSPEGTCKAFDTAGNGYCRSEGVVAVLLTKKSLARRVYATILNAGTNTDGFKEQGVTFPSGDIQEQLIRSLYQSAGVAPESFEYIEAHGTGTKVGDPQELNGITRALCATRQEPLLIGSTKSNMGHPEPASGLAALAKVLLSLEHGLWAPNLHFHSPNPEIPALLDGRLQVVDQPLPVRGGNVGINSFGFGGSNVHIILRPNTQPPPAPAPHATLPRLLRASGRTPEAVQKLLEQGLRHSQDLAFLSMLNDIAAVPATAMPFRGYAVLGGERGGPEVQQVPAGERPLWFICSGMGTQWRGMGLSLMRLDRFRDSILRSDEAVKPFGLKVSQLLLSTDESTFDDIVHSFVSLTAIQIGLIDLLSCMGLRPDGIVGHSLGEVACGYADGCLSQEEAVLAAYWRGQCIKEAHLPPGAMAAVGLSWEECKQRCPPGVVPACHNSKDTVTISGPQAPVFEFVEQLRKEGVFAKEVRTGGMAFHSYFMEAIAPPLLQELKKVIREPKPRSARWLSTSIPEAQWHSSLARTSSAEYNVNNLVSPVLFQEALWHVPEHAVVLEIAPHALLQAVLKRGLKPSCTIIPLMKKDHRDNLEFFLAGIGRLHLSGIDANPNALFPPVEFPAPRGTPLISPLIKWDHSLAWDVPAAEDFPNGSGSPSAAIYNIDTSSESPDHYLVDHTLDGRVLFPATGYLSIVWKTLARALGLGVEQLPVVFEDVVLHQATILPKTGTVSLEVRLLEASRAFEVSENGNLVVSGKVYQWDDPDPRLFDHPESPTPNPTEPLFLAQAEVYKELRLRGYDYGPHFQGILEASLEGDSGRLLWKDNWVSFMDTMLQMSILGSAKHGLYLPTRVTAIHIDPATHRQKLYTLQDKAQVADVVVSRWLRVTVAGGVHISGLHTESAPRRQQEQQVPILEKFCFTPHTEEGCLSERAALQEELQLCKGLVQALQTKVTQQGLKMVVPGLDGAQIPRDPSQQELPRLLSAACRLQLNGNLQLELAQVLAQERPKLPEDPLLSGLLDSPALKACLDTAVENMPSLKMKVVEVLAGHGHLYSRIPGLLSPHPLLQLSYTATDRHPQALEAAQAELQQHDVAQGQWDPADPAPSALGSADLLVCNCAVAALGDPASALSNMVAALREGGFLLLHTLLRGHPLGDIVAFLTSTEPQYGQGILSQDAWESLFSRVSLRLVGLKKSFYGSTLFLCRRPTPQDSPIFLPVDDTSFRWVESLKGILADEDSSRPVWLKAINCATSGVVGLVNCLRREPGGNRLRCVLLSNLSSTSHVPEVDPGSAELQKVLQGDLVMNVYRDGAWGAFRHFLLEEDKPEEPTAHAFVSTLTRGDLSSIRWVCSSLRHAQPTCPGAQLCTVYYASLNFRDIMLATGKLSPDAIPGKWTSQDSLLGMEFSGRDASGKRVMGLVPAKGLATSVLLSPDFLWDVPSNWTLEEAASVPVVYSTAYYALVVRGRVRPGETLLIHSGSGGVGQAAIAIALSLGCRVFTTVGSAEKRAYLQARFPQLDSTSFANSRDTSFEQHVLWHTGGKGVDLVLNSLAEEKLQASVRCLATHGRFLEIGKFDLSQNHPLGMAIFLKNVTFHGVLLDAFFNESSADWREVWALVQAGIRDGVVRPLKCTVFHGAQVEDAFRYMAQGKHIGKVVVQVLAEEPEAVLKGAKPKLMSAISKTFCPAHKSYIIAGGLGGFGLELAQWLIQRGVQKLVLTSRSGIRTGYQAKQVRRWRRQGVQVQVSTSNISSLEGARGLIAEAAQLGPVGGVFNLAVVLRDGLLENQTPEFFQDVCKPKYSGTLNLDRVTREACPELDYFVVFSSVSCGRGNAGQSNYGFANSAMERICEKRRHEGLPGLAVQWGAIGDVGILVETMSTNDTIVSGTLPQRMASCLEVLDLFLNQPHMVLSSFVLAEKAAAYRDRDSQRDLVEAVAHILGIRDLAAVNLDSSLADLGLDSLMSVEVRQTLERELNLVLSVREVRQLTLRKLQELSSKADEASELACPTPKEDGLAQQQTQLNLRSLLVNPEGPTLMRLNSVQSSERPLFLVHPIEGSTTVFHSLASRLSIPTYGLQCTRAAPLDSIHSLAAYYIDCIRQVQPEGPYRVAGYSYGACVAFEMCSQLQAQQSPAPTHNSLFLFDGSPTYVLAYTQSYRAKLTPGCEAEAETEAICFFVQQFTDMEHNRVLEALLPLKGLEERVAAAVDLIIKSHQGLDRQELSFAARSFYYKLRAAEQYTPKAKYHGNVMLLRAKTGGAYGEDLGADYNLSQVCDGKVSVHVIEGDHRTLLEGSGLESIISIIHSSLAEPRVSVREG
Dual specificity protein kinase CLK4, sequence (Q9HAZ1 whole entry): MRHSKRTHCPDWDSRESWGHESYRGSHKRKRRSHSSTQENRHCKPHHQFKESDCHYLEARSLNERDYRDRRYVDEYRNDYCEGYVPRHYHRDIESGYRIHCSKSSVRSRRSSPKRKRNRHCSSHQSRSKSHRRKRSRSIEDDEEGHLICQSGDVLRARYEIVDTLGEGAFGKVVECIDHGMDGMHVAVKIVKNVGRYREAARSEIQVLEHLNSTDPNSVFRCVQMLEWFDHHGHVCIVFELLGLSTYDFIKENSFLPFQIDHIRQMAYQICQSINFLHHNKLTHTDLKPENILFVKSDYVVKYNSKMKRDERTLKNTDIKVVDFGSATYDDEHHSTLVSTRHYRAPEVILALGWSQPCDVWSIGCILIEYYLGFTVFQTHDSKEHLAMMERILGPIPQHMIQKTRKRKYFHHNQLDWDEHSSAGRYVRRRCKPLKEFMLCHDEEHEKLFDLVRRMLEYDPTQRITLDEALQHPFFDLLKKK
Melanin-concentrating hormone receptor 1, sequence (Q99705 whole entry): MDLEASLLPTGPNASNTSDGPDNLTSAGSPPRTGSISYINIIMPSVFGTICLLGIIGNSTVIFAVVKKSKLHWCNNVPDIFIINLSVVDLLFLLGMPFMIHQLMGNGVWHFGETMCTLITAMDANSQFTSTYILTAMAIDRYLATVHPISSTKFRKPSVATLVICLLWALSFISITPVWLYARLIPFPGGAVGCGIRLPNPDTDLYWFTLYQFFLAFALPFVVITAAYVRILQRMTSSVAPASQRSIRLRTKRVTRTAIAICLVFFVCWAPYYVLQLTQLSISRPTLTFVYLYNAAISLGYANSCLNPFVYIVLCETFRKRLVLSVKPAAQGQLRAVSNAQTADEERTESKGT
Serine/threonine-protein kinase PAK 1, sequence (Q13153 whole entry): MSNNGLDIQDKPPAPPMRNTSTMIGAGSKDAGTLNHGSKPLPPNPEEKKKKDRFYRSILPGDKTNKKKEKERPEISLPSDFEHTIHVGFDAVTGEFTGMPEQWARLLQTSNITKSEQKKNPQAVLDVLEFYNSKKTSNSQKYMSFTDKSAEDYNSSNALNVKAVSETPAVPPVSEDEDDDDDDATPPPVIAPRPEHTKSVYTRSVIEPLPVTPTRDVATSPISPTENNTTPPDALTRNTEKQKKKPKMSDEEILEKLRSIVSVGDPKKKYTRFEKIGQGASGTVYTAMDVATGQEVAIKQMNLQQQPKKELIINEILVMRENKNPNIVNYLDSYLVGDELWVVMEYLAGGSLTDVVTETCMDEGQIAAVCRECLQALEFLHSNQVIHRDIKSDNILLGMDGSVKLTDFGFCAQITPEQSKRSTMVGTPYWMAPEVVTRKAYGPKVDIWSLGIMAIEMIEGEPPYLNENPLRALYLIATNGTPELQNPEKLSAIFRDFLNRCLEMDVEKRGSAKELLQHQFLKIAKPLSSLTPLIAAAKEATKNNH

- EC50 [1]: > 50 µM (inactive)
- EC50 [2]: > 50 µM (inactive)
Structure (SMILES): CCCc1cc(C(=O)NC2CCCCC2)no1

Structure (SMILES): O=C(Oc1ccccc1C(=O)Nc1ccccc1)c1ccc(Br)c([N+](=O)[O-])c1
- IC50 [3]: > 64.6 µM (inactive)
- IC50 [4]: > 64.6 µM (inactive)
- IC50 [5]: 4.66 µM (active)
- IC50 [6]: 5.97 µM (active)

- IC50 [7]: 2 µM (active)
- IC50 [8]: 3.6 µM (active)
- IC50 [9]: 3.68 µM (active)
- IC50 [10]: 3.5 µM (active)
- IC50 [12]: 3.02 µM (active)
- IC50 [14]: 2.7 µM (active)
Structure (SMILES): O=C(Nc1nc2c(F)cccc2s1)c1cccs1
- IC50 [11]: 4.1 µM (active)
- IC50 [13]: 2.66 µM (active)

- IC50 [15]: 0.804 µM (active)
- IC50 [16]: 2.55 µM (active)
Structure (SMILES): CCOc1ccc(Oc2c(S(C)(=O)=O)cnn(Cc3cccc4ccccc34)c2=O)cc1

- Ki [17]: 1 µM (active)
- Ki [18]: > 10 µM (inactive)
- Ki [19]: > 10 µM (inactive)
- Ki [20]: 3.98 µM (active)
- Ki [21]: 1.26 µM (active)
- Ki [22]: 6.31 µM (active)
Structure (SMILES): CC(=O)c1cccc(-c2cnc3ccccc3c2)c1

Structure (SMILES): CCCCCCSc1cc(-c2nc3cnccn3c2NCCCC)ccc1OC
- IC50 [23]: 33.6 µM (inactive)
- EC50 [24]: > 56 µM (inactive)
- EC50 [25]: 13.9 µM (inactive)
- IC50 [26]: 21.2 µM (inactive)
- EC50 [27]: > 54.7 µM (inactive)
- IC50 [28]: 7.42 µM (active)
- AC50 [29]: 4.56 µM (active)
